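1) Cells in 96-well plates. 2) Compound, 48 h, 5 concentrations. 3) Linear interpolation between surrounding doses. 4) Unreached endpoint = highest concentration. GI50 = concentration required for 50% inhibition of growth.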 Calls of active or inactive are those of the source. No stated cut-off is given here; in the data, active = GI50 up to about 1.1 µM and inactive = higher.
Tests used:
Experiment in all cases: growth of human tumour cells (NCI), 48 h
NCI-H226 = system: NCI-H226
U-251 = system: U-251
MCF7 = system: MCF7
SNB-19 = system: SNB-19
MDA-MB-435 = system: MDA-MB-435
M14 = system: M14
HL-60 = system: HL-60
MDA-MB-231 = system: MDA-MB-231
UACC-62 = system: UACC-62
MOLT-4 = system: MOLT-4
TK-10 = system: TK-10
SF-268 = system: SF-268
SR = system: SR
HCT-116 = system: HCT-116
EKVX = system: EKVX
BT-549 = system: BT-549
OVCAR-5 = system: OVCAR-5
HCT-15 = system: HCT-15
NCI-H23 = system: NCI-H23
LOX IMVI = system: LOX IMVI
SNB-75 = system: SNB-75
UACC-257 = system: UACC-257
SF-539 = system: SF-539
SK-MEL-5 = system: SK-MEL-5
NCI-H460 = system: NCI-H460
MDA-N = system: MDA-N
Malme-3M = system: Malme-3M
UO-31 = system: UO-31
RXF 393 = system: RXF 393
OVCAR-3 = system: OVCAR-3
DU-145 = system: DU-145
SK-MEL-2 = system: SK-MEL-2
HT-29 = system: HT-29
Hs-578T = system: Hs-578T
HOP-62 = system: HOP-62
RPMI-8226 = system: RPMI-8226
A498 = system: A498
NCI/ADR-RES = system: NCI/ADR-RES
OVCAR-8 = system: OVCAR-8
SK-MEL-28 = system: SK-MEL-28
CCRF-CEM = system: CCRF-CEM
SW-620 = system: SW-620
CAKI-1 = system: CAKI-1
K562 = system: K562
SN12C = system: SN12C
KM12 = system: KM12
PC-3 = system: PC-3
COLO 205 = system: COLO 205
786-0 = system: 786-0
SK-OV-3 = system: SK-OV-3
ACHN = system: ACHN
IGROV-1 = system: IGROV-1
SF-295 = system: SF-295
A549 = system: A549
HOP-92 = system: HOP-92
NCI-H522 = system: NCI-H522
T47D = system: T47D
HCC 2998 = system: HCC 2998
OVCAR-4 = system: OVCAR-4

S=C(c1c[nH]c2ccccc12)N1CCOCC1
GI50 (NCI-H226): 24.6 µM (inactive) | GI50 (U-251): > 100 µM (inactive) | GI50 (MCF7): > 100 µM (inactive) | GI50 (SNB-19): > 100 µM (inactive) | GI50 (MDA-MB-435): > 100 µM (inactive) | GI50 (M14): > 100 µM (inactive) | GI50 (HL-60): > 100 µM (inactive) | GI50 (MDA-MB-231): > 100 µM (inactive) | GI50 (UACC-62): > 100 µM (inactive) | GI50 (MOLT-4): > 100 µM (inactive) | GI50 (TK-10): > 100 µM (inactive) | GI50 (SF-268): 14.1 µM (inactive) | GI50 (SR): > 100 µM (inactive) | GI50 (HCT-116): > 100 µM (inactive) | GI50 (EKVX): 43.1 µM (inactive) | GI50 (BT-549): > 100 µM (inactive) | GI50 (OVCAR-5): > 100 µM (inactive) | GI50 (HCT-15): > 100 µM | GI50 (NCI-H23): > 100 µM (inactive) | GI50 (LOX IMVI): > 100 µM (inactive) | GI50 (SNB-75): 0.52 µM (active) | GI50 (UACC-257): > 100 µM (inactive) | GI50 (SF-539): > 100 µM (inactive) | GI50 (SK-MEL-5): > 100 µM (inactive) | GI50 (NCI-H460): > 100 µM (inactive) | GI50 (MDA-N): > 100 µM (inactive) | GI50 (Malme-3M): 25 µM (inactive) | GI50 (UO-31): 45.8 µM (inactive) | GI50 (RXF 393): > 100 µM (inactive) | GI50 (OVCAR-3): > 100 µM (inactive) | GI50 (DU-145): > 100 µM (inactive) | GI50 (SK-MEL-2): > 100 µM (inactive) | GI50 (HT-29): > 100 µM (inactive) | GI50 (Hs-578T): 22.3 µM (inactive) | GI50 (HOP-62): > 100 µM (inactive) | GI50 (RPMI-8226): > 100 µM (inactive) | GI50 (A498): > 100 µM (inactive) | GI50 (NCI/ADR-RES): > 100 µM (inactive) | GI50 (OVCAR-8): > 100 µM (inactive) | GI50 (SK-MEL-28): > 100 µM (inactive) | GI50 (CCRF-CEM): > 100 µM (inactive) | GI50 (SW-620): > 100 µM (inactive) | GI50 (CAKI-1): > 100 µM (inactive) | GI50 (K562): > 100 µM (inactive) | GI50 (SN12C): > 100 µM (inactive) | GI50 (KM12): > 100 µM (inactive) | GI50 (PC-3): > 100 µM (inactive) | GI50 (COLO 205): > 100 µM (inactive) | GI50 (786-0): > 100 µM (inactive) | GI50 (SK-OV-3): > 100 µM (inactive) | GI50 (ACHN): > 100 µM (inactive) | GI50 (IGROV-1): 36.3 µM (inactive) | GI50 (SF-295): > 100 µM (inactive)

OC(CN(CCCl)CCCl)C(O)C(O)C(O)CN(CCCl)CCCl (stereo unspecified)
GI50 (NCI-H226): > 100 µM (inactive) | GI50 (A549): > 100 µM (inactive) | GI50 (U-251): 37.4 µM (inactive) | GI50 (MCF7): 29 µM (inactive) | GI50 (SNB-19): > 100 µM (inactive) | GI50 (MDA-MB-435): > 100 µM (inactive) | GI50 (M14): > 100 µM (inactive) | GI50 (HL-60): 5.04 µM (inactive) | GI50 (MDA-MB-231): > 100 µM (inactive) | GI50 (UACC-62): 12.4 µM (inactive) | GI50 (TK-10): > 100 µM (inactive) | GI50 (SF-268): 41.6 µM (inactive) | GI50 (SR): 0.624 µM (active) | GI50 (HCT-116): > 100 µM (inactive) | GI50 (EKVX): > 100 µM (inactive) | GI50 (BT-549): > 100 µM (inactive) | GI50 (OVCAR-5): > 100 µM (inactive) | GI50 (HCT-15): > 100 µM | GI50 (HOP-92): > 100 µM (inactive) | GI50 (NCI-H23): 63.1 µM (inactive) | GI50 (NCI-H522): 47.3 µM (inactive) | GI50 (LOX IMVI): 27.4 µM (inactive) | GI50 (UACC-257): > 100 µM (inactive) | GI50 (SF-539): 52.4 µM (inactive) | GI50 (SK-MEL-5): > 100 µM (inactive) | GI50 (NCI-H460): 9.89 µM (inactive) | GI50 (Malme-3M): 85.7 µM (inactive) | GI50 (UO-31): 22.1 µM (inactive) | GI50 (RXF 393): > 100 µM (inactive) | GI50 (OVCAR-3): > 100 µM (inactive) | GI50 (DU-145): 71.9 µM (inactive) | GI50 (SK-MEL-2): > 100 µM (inactive) | GI50 (HT-29): > 100 µM (inactive) | GI50 (Hs-578T): > 100 µM (inactive) | GI50 (HOP-62): > 100 µM (inactive) | GI50 (T47D): 30.5 µM (inactive) | GI50 (RPMI-8226): > 100 µM (inactive) | GI50 (A498): > 100 µM (inactive) | GI50 (NCI/ADR-RES): 78.9 µM (inactive) | GI50 (OVCAR-8): > 100 µM (inactive) | GI50 (SK-MEL-28): > 100 µM (inactive) | GI50 (CCRF-CEM): 37.6 µM (inactive) | GI50 (SW-620): > 100 µM (inactive) | GI50 (CAKI-1): > 100 µM (inactive) | GI50 (K562): > 100 µM (inactive) | GI50 (SN12C): 23.2 µM (inactive) | GI50 (KM12): > 100 µM (inactive) | GI50 (PC-3): > 100 µM (inactive) | GI50 (COLO 205): 84.7 µM (inactive) | GI50 (786-0): 91 µM (inactive) | GI50 (SK-OV-3): > 100 µM (inactive) | GI50 (ACHN): 2.7 µM (inactive) | GI50 (IGROV-1): > 100 µM (inactive) | GI50 (HCC 2998): > 100 µM (inactive)

CN(C)CCNc1c([N+](=O)[O-])sc2ccc(Cl)cc12
GI50 (OVCAR-4): 12.6 µM (inactive) | GI50 (NCI-H226): 15.8 µM (inactive) | GI50 (A549): 11.9 µM (inactive) | GI50 (U-251): 18.3 µM (inactive) | GI50 (MCF7): 7.36 µM (inactive) | GI50 (SNB-19): 26.2 µM (inactive) | GI50 (MDA-MB-435): 88.5 µM (inactive) | GI50 (M14): > 100 µM (inactive) | GI50 (HL-60): > 100 µM (inactive) | GI50 (MDA-MB-231): 17.3 µM (inactive) | GI50 (UACC-62): 14 µM (inactive) | GI50 (MOLT-4): 2.37 µM (inactive) | GI50 (TK-10): 91 µM (inactive) | GI50 (SF-268): 18.3 µM (inactive) | GI50 (SR): > 100 µM (inactive) | GI50 (EKVX): 44.7 µM (inactive) | GI50 (BT-549): 32.3 µM (inactive) | GI50 (OVCAR-5): > 100 µM (inactive) | GI50 (HCT-15): 7.76 µM | GI50 (NCI-H23): 23.2 µM (inactive) | GI50 (NCI-H522): 10.8 µM (inactive) | GI50 (LOX IMVI): 3.49 µM (inactive) | GI50 (SNB-75): 14.5 µM (inactive) | GI50 (SF-539): 14 µM (inactive) | GI50 (SK-MEL-5): 26.2 µM (inactive) | GI50 (NCI-H460): 5.38 µM (inactive) | GI50 (Malme-3M): 26.9 µM (inactive) | GI50 (UO-31): 20 µM (inactive) | GI50 (RXF 393): 19.1 µM (inactive) | GI50 (OVCAR-3): > 100 µM (inactive) | GI50 (DU-145): 80.4 µM (inactive) | GI50 (SK-MEL-2): 33.5 µM (inactive) | GI50 (HT-29): 5.89 µM (inactive) | GI50 (Hs-578T): 21.3 µM (inactive) | GI50 (HOP-62): 12.2 µM (inactive) | GI50 (T47D): 23.6 µM (inactive) | GI50 (RPMI-8226): > 100 µM (inactive) | GI50 (A498): 23.3 µM (inactive) | GI50 (NCI/ADR-RES): 11.1 µM (inactive) | GI50 (OVCAR-8): 17.3 µM (inactive) | GI50 (SK-MEL-28): > 100 µM (inactive) | GI50 (CCRF-CEM): 4.36 µM (inactive) | GI50 (SW-620): 3.77 µM (inactive) | GI50 (K562): 7.52 µM (inactive) | GI50 (SN12C): 7.66 µM (inactive) | GI50 (KM12): > 100 µM (inactive) | GI50 (PC-3): 13.4 µM (inactive) | GI50 (COLO 205): 8.75 µM (inactive) | GI50 (786-0): 12.2 µM (inactive) | GI50 (SK-OV-3): 25.5 µM (inactive) | GI50 (ACHN): 6.01 µM (inactive) | GI50 (IGROV-1): 26.1 µM (inactive) | GI50 (HCC 2998): 15.7 µM (inactive) | GI50 (SF-295): 17.6 µM (inactive)
